Data from patent US12649750B2, “Macrocyclic compounds, compositions, and methods of using thereof” (Sionna Therapeutics Inc., priority 2022, dated 2026).

Tests used:
[1] = target: T1, NBD1 (Homo sapiens, UniProt P13569); assay: Aggregation analysis using differential static light scattering (DSLS), thermal stability of NBD1 (ΔTagg); format: binding; conditions: ΔTagg versus DMSO control, NBD1 0.2 mg/ml
T1 construct: Purified recombinant NBD1 was produced using previously described methods; made in house
Outline: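 Differential static light scattering read from 25° C. to 70° C. every 0.5° C., ramp 1° C./min, on recombinant NBD1 (0.2 mg/ml; Tris/NaCl/MgCl2 buffer with 2 mM ATP, 2 mM DTT, pH 7.6, 1% glycerol) plus compound. Reported ΔTagg subtracts averaged DMSO Tagg from inflection-point Tagg; categories A ≤5, B >5-10, C >10-25° C.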

[2] = target: T2, CFTR (Homo sapiens, UniProt P13569, DEL508-508); assay: TECC24 AUC fold over DMSO @10 μM, CFTR-mediated transepithelial chloride transport in CF-HBE cells; format: cell-based; conditions: test agent AUC divided by DMSO vehicle AUC, primary CF-HBE cells, ΔF508 homozygous donor, 48 hours incubation
T2 construct: Primary human bronchial epithelial cells from a ΔF508 homozygous CF donor; host or cells: primary human bronchial epithelial cells (CF-HBE), ΔF508 homozygous donor
Outline: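 ΔF508-homozygous primary bronchial epithelial cells incubated 48 h at 36.5° C with compound (10 μM) in IL-13-containing medium, then TECC24 current-clamp recording in pH 7.4 Hepes saline with benzamil 10 μM, forskolin 10 μM, then CFTR inhibitor-172 20 μM. Equivalent Cl− current AUC between forskolin and inhibitor, expressed as fold over DMSO.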

T1 sequence (P13569 423-646 limits assumed): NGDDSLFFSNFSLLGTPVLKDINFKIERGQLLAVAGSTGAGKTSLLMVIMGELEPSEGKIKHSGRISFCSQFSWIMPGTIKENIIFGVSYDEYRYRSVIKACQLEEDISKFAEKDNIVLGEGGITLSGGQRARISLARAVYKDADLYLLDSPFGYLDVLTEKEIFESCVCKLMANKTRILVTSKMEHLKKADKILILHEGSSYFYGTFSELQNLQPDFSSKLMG
T2 sequence (P13569 with tags, fused parts or gaps DEL508-508): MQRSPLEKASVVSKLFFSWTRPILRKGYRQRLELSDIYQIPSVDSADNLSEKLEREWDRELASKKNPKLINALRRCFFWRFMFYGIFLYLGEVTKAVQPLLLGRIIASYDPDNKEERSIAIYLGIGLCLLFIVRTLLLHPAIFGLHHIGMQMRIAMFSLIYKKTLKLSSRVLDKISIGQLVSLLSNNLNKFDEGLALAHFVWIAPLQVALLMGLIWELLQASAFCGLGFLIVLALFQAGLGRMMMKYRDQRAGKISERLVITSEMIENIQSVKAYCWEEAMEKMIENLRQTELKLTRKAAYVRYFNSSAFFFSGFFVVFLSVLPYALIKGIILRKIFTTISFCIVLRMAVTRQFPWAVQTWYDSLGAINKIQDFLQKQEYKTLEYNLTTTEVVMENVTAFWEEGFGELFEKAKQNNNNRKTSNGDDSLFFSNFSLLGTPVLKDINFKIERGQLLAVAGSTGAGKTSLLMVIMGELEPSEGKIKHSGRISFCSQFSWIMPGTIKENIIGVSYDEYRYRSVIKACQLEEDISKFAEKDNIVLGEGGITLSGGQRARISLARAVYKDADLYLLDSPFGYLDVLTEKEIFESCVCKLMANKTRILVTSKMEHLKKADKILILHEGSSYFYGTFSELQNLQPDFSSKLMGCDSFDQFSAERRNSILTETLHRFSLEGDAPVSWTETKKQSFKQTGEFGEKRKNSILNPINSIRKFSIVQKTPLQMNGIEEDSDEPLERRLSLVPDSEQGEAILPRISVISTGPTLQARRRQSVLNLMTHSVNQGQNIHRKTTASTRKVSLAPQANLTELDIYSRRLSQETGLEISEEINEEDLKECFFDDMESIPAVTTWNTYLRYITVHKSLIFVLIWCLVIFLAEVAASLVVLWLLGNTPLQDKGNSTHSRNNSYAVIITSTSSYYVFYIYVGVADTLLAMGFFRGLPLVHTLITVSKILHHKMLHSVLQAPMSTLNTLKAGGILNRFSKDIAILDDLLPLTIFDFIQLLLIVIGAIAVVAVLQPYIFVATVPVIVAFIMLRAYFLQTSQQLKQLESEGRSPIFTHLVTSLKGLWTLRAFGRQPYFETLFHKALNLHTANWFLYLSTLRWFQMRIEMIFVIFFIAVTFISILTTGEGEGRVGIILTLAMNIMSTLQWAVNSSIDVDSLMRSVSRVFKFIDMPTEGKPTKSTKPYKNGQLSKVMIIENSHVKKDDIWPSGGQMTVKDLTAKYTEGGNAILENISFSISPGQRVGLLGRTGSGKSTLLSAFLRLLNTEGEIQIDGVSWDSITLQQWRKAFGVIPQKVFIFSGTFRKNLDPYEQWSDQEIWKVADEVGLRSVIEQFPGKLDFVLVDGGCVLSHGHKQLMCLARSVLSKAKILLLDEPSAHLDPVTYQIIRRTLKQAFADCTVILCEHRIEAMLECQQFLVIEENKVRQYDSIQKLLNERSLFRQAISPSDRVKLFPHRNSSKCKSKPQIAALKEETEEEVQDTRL

Row | SMILES | DSLS 3D (100 μM ΔT) [1] | TECC (AUC, 10 μM) [2]
1 | C[C@H](Cc1cccc(C2(C)CCCC(C)(C)CS(=O)(=O)CCc3c(c(F)cc4[nH]ccc34)Cc3ccc(F)c(c3)-c3nc2nn3C)c1)C(=O)O (single isomer, unassigned) [Compound 169A] | C (a value greater than 10 °C and less than or equal to 25 °C is marked “C”) | A (a TECC value less than 12 is marked “A”)
2 | C[C@H](Cc1cccc(C2(C)CCCC(C)(C)CS(=O)(=O)CCc3c(c(F)cc4[nH]ccc34)Cc3ccc(F)c(c3)-c3nc2nn3C)c1)C(=O)O (single isomer, unassigned) [Compound 169B] | A (an ΔTagg value less than or equal to 5 °C is marked “A”) | A (a TECC value less than 12 is marked “A”)
3 | CC1(C)CCCC(C)(c2cccc(CC3(C(=O)O)CC3)c2)c2c[nH]c(n2)-c2cc(ccc2F)Oc2c(F)cc3[nH]ccc3c2CCS(=O)(=O)C1 (single isomer, unassigned) [Compound 171A, 1-[[3-(22,28-difluoro-6,10,10-trimethyl-12,12-dioxo-24-oxa-12λ6-thia-3,19,30-triazapentacyclo[23.3.1.12,5.015,23.016,20]triaconta-1(29),2(30),4,15,17,20,22,25,27-nonaen-6-yl)phenyl]methyl]cyclopropanecarboxylic Acid] | A (an ΔTagg value less than or equal to 5 °C is marked “A”) | A (a TECC value less than 12 is marked “A”)
4 | CC1(C)CCCC(C)(c2cccc(CC3(C(=O)O)CC3)c2)c2c[nH]c(n2)-c2cc(ccc2F)Oc2c(F)cc3[nH]ccc3c2CCS(=O)(=O)C1 (single isomer, unassigned) [Compound 171B, 1-[[3-(22,28-difluoro-6,10,10-trimethyl-12,12-dioxo-24-oxa-12λ6-thia-3,19,30-triazapentacyclo[23.3.1.12,5.015,23.016,20]triaconta-1(29),2(30),4,15,17,20,22,25,27-nonaen-6-yl)phenyl]methyl]cyclopropanecarboxylic Acid] | C (a value greater than 10 °C and less than or equal to 25 °C is marked “C”) | A (a TECC value less than 12 is marked “A”)
5 | C[C@@H](Cc1cccc(C2(C)CCCC(C)(C)CS(=O)(=O)CCc3c(c(F)cc4[nH]ccc34)[S+]([O-])c3ccc(F)c(c3)-c3nc2nn3C)n1)C(=O)O (single isomer, unassigned) [Compound 179A] | B (a value above 5 °C and less than or equal to 10 °C is marked “B”) | A (a TECC value less than 12 is marked “A”)
6 | C[C@@H](Cc1cccc(C2(C)CCCC(C)(C)CS(=O)(=O)CCc3c(c(F)cc4[nH]ccc34)[S+]([O-])c3ccc(F)c(c3)-c3nc2nn3C)n1)C(=O)O (single isomer, unassigned) [Compound 179B] | A (an ΔTagg value less than or equal to 5 °C is marked “A”) | A (a TECC value less than 12 is marked “A”)
7 | C[C@@H](Cc1cccc(C2(C)CCCC(C)(C)CS(=O)(=O)CCc3c(c(F)cc4[nH]ccc34)[S+]([O-])c3ccc(F)c(c3)-c3nc2nn3C)n1)C(=O)O (single isomer, unassigned) [Compound 179C] | C (a value greater than 10 °C and less than or equal to 25 °C is marked “C”) | C (a value between 20 and 80 is marked “C”)
8 | C[C@@H](Cc1cccc(C2(C)CCCC(C)(C)CS(=O)(=O)CCc3c(c(F)cc4[nH]ccc34)[S+]([O-])c3ccc(F)c(c3)-c3nc2nn3C)n1)C(=O)O (single isomer, unassigned) [Compound 179D] | A (an ΔTagg value less than or equal to 5 °C is marked “A”) | A (a TECC value less than 12 is marked “A”)
9 | C[C@@H](Cc1cccc(C2(C)CCCC(C)(C)CS(=O)(=O)CCc3c(c(F)cc4[nH]ccc34)S(=O)(=O)c3ccc(F)c(c3)-c3nc2nn3C)n1)C(=O)O (single isomer, unassigned) [Compound 180A] | C (a value greater than 10 °C and less than or equal to 25 °C is marked “C”) | B (a value between 12-20 is marked “B”)
10 | C[C@@H](Cc1cccc(C2(C)CCCC(C)(C)CS(=O)(=O)CCc3c(c(F)cc4[nH]ccc34)S(=O)(=O)c3ccc(F)c(c3)-c3nc2nn3C)n1)C(=O)O (single isomer, unassigned) [Compound 180B] | A (an ΔTagg value less than or equal to 5 °C is marked “A”) | A (a TECC value less than 12 is marked “A”)
11 | C[C@H](Cc1cccc(C2(C)CCCC(C)(C)CS(=O)(=O)CCc3c(c(F)cc4[nH]ccc34)[S+]([O-])c3ccc(F)c(c3)-c3nc2nn3C)n1)C(=O)O (single isomer, unassigned) [Compound 181A] | B (a value above 5 °C and less than or equal to 10 °C is marked “B”) | A (a TECC value less than 12 is marked “A”)
12 | C[C@H](Cc1cccc(C2(C)CCCC(C)(C)CS(=O)(=O)CCc3c(c(F)cc4[nH]ccc34)[S+]([O-])c3ccc(F)c(c3)-c3nc2nn3C)n1)C(=O)O (single isomer, unassigned) [Compound 181B] | A (an ΔTagg value less than or equal to 5 °C is marked “A”) | A (a TECC value less than 12 is marked “A”)
13 | C[C@H](Cc1cccc(C2(C)CCCC(C)(C)CS(=O)(=O)CCc3c(c(F)cc4[nH]ccc34)[S+]([O-])c3ccc(F)c(c3)-c3nc2nn3C)n1)C(=O)O (single isomer, unassigned) [Compound 181C] | A (an ΔTagg value less than or equal to 5 °C is marked “A”) | A (a TECC value less than 12 is marked “A”)
14 | C[C@H](Cc1cccc(C2(C)CCCC(C)(C)CS(=O)(=O)CCc3c(c(F)cc4[nH]ccc34)[S+]([O-])c3ccc(F)c(c3)-c3nc2nn3C)n1)C(=O)O (single isomer, unassigned) [Compound 181D] | C (a value greater than 10 °C and less than or equal to 25 °C is marked “C”) | A (a TECC value less than 12 is marked “A”)
15 | C[C@H](Cc1cccc(C2(C)CCCC(C)(C)CS(=O)(=O)CCc3c(c(F)cc4[nH]ccc34)Oc3cc(ccn3)-c3nc2nn3C)c1)C(=O)O (single isomer, unassigned) [Compound 184] | B (a value above 5 °C and less than or equal to 10 °C is marked “B”) | A (a TECC value less than 12 is marked “A”)
16 | C[C@@H](Cc1cccc(C2(C)CCCC(C)(C)CS(=O)(=O)CCc3c(c(F)cc4[nH]ccc34)Oc3ccc(F)c(c3)-c3nc2nn3C)c1)C(=O)NO (single isomer, unassigned) [Compound 185] | C (a value greater than 10 °C and less than or equal to 25 °C is marked “C”) | B (a value between 12-20 is marked “B”)
17 | C[C@@H](Cc1cccc(C2(C)CCCC(C)(C)CS(=O)(=O)CCc3c(c(F)cc4[nH]ccc34)Oc3ccc(F)c(c3)-c3nc2nn3C)c1)C(=O)N(C)O (single isomer, unassigned) [Compound 187] | B (a value above 5 °C and less than or equal to 10 °C is marked “B”) | A (a TECC value less than 12 is marked “A”)
18 | CCONC(=O)[C@@H](C)Cc1cccc(C2(C)CCCC(C)(C)CS(=O)(=O)CCc3c(c(F)cc4[nH]ccc34)Oc3ccc(F)c(c3)-c3nc2nn3C)c1 (single isomer, unassigned) [Compound 188] | B (a value above 5 °C and less than or equal to 10 °C is marked “B”) | B (a value between 12-20 is marked “B”)
19 | CC(C)ONC(=O)[C@@H](C)Cc1cccc(C2(C)CCCC(C)(C)CS(=O)(=O)CCc3c(c(F)cc4[nH]ccc34)Oc3ccc(F)c(c3)-c3nc2nn3C)c1 (single isomer, unassigned) [Compound 189] | B (a value above 5 °C and less than or equal to 10 °C is marked “B”) | B (a value between 12-20 is marked “B”)
20 | Cn1nc2nc1-c1cc(ccc1F)Oc1c(F)cc3[nH]ccc3c1CCS(=O)(=O)CC(C)(C)CCCC2(C)c1cccc(CC2CC(=O)N(O)C2=O)c1 (single isomer, unassigned) [Compound 195A, 3-[[3-(22,28-difluoro-3,6,10,10-tetramethyl-12,12-dioxo-24-oxa-12λ6-thia-3,4,19,30-tetrazapentacyclo[23.3.1.12,5.015,23.016,20]triaconta-1(29),2(30),4,15,17,20,22,25,27-nonaen-6-yl)phenyl]methyl]-1-hydroxy-pyrrolidine-2,5-dione] | C (a value greater than 10 °C and less than or equal to 25 °C is marked “C”) | C (a value between 20 and 80 is marked “C”)
21 | Cn1nc2nc1-c1cc(ccc1F)Oc1c(F)cc3[nH]ccc3c1CCS(=O)(=O)CC(C)(C)CCCC2(C)c1cccc(CC2CC(=O)N(O)C2=O)c1 (single isomer, unassigned) [Compound 195B, 3-[[3-(22,28-difluoro-3,6,10,10-tetramethyl-12,12-dioxo-24-oxa-12λ6-thia-3,4,19,30-tetrazapentacyclo[23.3.1.12,5.015,23.016,20]triaconta-1(29),2(30),4,15,17,20,22,25,27-nonaen-6-yl)phenyl]methyl]-1-hydroxy-pyrrolidine-2,5-dione] | C (a value greater than 10 °C and less than or equal to 25 °C is marked “C”) | C (a value between 20 and 80 is marked “C”)
